The results in this text go back to BindingDB's records for patent US10913753 (Valo Early Discovery, 2021).

Assay [1] addresses T1, Ubiquitin carboxyl-terminal hydrolase 25 (Homo sapiens, UniProt Q9UHP3).
T1 sequence (Q9UHP3 whole entry): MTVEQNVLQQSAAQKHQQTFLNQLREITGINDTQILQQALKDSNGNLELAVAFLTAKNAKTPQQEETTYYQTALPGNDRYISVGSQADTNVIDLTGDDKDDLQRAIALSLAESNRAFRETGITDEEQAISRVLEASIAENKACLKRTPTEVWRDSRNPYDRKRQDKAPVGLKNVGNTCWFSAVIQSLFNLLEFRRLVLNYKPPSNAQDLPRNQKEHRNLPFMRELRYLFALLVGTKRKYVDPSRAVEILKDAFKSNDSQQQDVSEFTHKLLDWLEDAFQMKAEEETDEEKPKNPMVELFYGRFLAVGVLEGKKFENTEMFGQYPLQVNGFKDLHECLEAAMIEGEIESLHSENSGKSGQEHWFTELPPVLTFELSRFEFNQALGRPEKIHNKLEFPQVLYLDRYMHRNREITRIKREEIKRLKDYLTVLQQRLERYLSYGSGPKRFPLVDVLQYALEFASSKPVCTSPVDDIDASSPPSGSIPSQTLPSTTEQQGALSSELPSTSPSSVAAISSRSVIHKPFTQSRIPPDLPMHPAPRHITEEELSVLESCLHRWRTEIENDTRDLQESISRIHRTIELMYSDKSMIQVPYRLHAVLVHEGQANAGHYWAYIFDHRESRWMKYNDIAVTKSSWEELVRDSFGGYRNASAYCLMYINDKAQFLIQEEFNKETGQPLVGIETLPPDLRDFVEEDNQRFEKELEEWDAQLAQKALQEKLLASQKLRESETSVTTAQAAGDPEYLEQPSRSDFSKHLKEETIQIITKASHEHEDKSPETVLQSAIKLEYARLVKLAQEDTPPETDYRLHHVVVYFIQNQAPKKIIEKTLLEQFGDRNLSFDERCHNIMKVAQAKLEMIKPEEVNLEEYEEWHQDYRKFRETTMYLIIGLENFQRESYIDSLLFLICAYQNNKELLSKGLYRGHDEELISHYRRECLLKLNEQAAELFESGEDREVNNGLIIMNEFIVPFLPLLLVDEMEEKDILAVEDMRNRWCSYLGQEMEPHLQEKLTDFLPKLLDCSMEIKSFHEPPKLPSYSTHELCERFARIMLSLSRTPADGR
The assay is described as follows: Biochemical Assay. As to the method: USP25: The assay was performed in a final volume of 9 uL in assay buffer containing 20 mM Tris-HCl (pH 8.0, (1M Tris-HC1, pH 8.0 solution; Corning 46-031-CM)), 3 mM BME (2-Mercaptoethanol; Sigma 63689-25ML-F), 0.03% BGG (0.22 uM filtered, Sigma, G7516-25G), and 0.01% Triton X-100 (Sigma, T9284-10L). Nanoliter quantities of 10-point, 3-fold serial dilution in DMSO was pre-dispensed into 1536 assay plates (Corning, #3724BC) for a final test concentration of 25 uM to 1.3 nM, top to lowest dose, respectively. Enzyme USP25, construct USP25-His6, (Boston Biochem E-546). Concentration and incubation times were optimized for the maximal signal-to-background while maintaining initial velocity conditions at a fixed substrate concentration. The final concentration of the enzyme in the assay was 75 pM. Final substrate (Ub -Rh110; Ubiquitin-Rhodamine 110, R&D Systems #U-555) concentration was 25 nM with [Ub -Rh110] Km. 3 uL of 2x enzyme was added to assay plates (pre-stamped with compound) preincubated with USP25 for 30 minutes and then 3 uL of 2x Ub-Rh110 was added to assay plates. Plates were incubated for 45 minutes at room temperature before addition of 3 uL of stop solution (final concentration of 10 mM citric acid (Sigma, 251275-500G)). Fluorescence was read on the Envision (Excitation at 485 nm and Emission at 535 nm; Perkin Elmer) or on the PheraSTAR (Excitation at 485 nm and Emission at 535 nm; BMG Labtech).

The target of assay [2] is T2, Ubiquitin carboxyl-terminal hydrolase 28 (Homo sapiens, UniProt Q96RU2).
T2 sequence (Q96RU2 whole entry): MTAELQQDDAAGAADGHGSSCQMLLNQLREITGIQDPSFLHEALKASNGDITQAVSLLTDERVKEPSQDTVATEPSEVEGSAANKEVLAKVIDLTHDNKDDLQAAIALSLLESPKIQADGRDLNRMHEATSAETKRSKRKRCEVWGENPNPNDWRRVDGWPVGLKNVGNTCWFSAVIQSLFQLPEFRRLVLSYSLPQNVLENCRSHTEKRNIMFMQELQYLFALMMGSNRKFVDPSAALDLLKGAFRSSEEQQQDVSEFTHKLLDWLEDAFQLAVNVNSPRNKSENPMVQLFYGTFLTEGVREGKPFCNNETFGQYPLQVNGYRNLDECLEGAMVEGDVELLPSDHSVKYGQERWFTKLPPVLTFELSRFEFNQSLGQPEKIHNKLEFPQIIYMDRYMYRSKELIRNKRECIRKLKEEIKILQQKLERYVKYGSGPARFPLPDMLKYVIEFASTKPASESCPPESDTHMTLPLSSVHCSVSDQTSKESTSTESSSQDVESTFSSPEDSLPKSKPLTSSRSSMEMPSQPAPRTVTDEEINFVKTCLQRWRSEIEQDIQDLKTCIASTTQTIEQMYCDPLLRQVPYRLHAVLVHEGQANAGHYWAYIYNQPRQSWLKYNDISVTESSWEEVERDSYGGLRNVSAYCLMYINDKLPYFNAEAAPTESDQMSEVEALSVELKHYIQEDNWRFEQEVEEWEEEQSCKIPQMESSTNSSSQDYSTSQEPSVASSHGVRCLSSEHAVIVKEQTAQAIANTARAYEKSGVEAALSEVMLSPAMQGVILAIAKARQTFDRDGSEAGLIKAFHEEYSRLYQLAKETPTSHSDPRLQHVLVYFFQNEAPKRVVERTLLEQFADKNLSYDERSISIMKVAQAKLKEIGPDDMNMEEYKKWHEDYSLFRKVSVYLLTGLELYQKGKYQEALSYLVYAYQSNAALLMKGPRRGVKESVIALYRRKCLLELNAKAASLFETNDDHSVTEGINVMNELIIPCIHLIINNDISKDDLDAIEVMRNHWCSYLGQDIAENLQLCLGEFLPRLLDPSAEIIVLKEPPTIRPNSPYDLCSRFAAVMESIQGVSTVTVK
In words: Biochemical Assay. How it is done:
USP28: The assay was performed in a final volume of 20 uL in assay buffer containing 20 mM Tris-HCl (pH 8.0, (1M Tris-HCl, pH 8.0 solution; Corning 46-031-CM)), 2 mM CaCl2 (1M Calcium Chloride solution; Sigma #21114) 2 mM BME (2-Mercaptoethanol; Sigma 63689-25ML -F), 0.01% Prionex (0.22 uM filtered, Sigma #G-0411), and 0.01% Triton X-100. Stock compound solutions were stored at […] as 10 mM in DMSO. Up to 1 month prior to the assay, 2 mM test compounds were pre-dispensed into assay plates (Black, low volume; Corning #3820) and […] Prestamped assay plates were allowed to come to room temperature on the day of the assay. For the screen, 100 nL of 2 mM was pre-dispensed for a final screening concentration of 10 uM (DMSO(fc)=0.5%). […] Plates were incubated stacked for 90 minutes at room temperature before fluorescence was read on the Envision (Excitation at 485 nm and Emission at 535 nm; Perkin Elmer) or on the PheraSTAR (Excitation at 485 nm and Emission at 535 nm; BMG Labtech).

In general, IC50 refers to the concentration at which inhibition is half-maximal. A high value points to weaker potency. Regarding `CN[C@H]1CN(c2nc(F)c(CCNC(=O)c3sc4nc(C)ccc4c3N)cc2F)CC1C` (stereo partly specified) [US10913753, Compound I-214], the IC50 result was “in the range around 6000 nM” in assay [1] and “in the range around 1100 nM” in assay [2].

With `Nc1c(C(=O)NCCc2ccc([C@H]3CCNC3)cc2)sc2ncccc12` [US10913753, Compound I-180], the IC50 entry is “in the range around 1100 nM” in assay [1] and below 200 nM in assay [2].

`Nc1c(C(=O)NCCc2ccc(C3CCNC3)cc2)sc2ncccc12` (stereo unspecified) [US10913753, Compound I-181]: the IC50 entry is “in the range around 1100 nM” in assay [1] and below 200 nM in assay [2].
